Experimental data as given in patent US8455475B2 (Gruenenthal GmbH, priority 2009, dated 2013).

Legend:
[1] = target: T1, rat B1R (bradykinin receptor 1) (Rattus norvegicus, UniProt P97583); assay: FLIPR Ca2+ assay (Fluo-4) on CHO K1 cells stably transfected with the B1R gene of the rat (rB1R cells): % inhibition at 10 μM / IC50, agonist Des-Arg9-bradykinin; type: cell-based; settings: for inhibition at 10 µM: CHO-K1, rat B1R
T1 construct: expressed in transfected cells; host or cells: CHO K1 cells
T1 sequence (P97583 1-337): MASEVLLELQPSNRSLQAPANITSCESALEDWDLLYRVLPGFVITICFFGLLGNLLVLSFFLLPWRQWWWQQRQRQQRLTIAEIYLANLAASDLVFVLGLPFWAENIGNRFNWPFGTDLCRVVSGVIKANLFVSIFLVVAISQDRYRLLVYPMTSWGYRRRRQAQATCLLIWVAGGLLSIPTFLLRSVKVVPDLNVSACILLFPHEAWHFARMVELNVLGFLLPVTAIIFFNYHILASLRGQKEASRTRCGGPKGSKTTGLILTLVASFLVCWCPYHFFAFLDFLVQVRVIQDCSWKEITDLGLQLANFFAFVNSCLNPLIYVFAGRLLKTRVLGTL
In short: (§1)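 Using a two-addition FLIPR protocol, compound (10 μM for % values; concentration series for IC50) was preincubated 10–20 min with Fluo-4-loaded B1R-expressing CHO K1 cells before EC80 agonist challenge. Suppression of Ca2+ inflow, read as peak fluorescence, is expressed relative to maximum achievable inhibition; duplicate/triplicate, ≥2 independent experiments.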

[2] = target: T2, human B1R (bradykinin receptor 1) (Homo sapiens, UniProt P46663); assay: FLIPR Ca2+ assay (Fluo-4) on CHO K1 cells stably transfected with the human B1R gene (hB1R cells): % inhibition at 10 μM / IC50, agonist Lys-Des-Arg9-bradykinin; type: cell-based; settings: for inhibition at 10 µM: CHO-K1, human B1R
T2 construct: expressed in transfected cells; host or cells: CHO K1 cells
T2 sequence (P46663 1-353): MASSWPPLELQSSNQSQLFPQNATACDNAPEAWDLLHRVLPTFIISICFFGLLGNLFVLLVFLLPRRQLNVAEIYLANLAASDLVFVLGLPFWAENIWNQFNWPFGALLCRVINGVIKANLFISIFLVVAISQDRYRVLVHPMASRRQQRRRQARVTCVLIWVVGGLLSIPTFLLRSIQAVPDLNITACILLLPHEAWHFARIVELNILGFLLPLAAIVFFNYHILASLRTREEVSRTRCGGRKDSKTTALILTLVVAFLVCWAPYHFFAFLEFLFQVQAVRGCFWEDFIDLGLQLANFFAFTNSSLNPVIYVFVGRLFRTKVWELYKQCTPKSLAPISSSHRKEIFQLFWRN
In short: as §1

inhibition at 10 µM [1] [%] | inhibition at 10 µM [2] [%] | % Inhibition (rat B1R) at 10 μM [1] [%] | % Inhibition (human B1R) at 10 μM [2] [%] | Structure (SMILES)
75 | 91 | – | – | CN(C(=O)Nc1ccc(Cl)c(Cl)c1)C1CCc2ccc(C(=O)N3CCC4(CC3)CCN(c3ccncc3)CC4)cc21 (stereo not drawn) [Ind_CC-022, 3-(3,4-dichlorophenyl)-1-methyl-1-[6-(9-pyridin-4-yl-3,9-diazaspiro[5.5]undecane-3-carbonyl)-2,3-dihydro-1H-inden-1-yl]-urea]
– | – | 93 | 98 | CN(C(=O)NCc1ccccc1Cl)C1CCc2ccc(C(=O)N3CCC4(CC3)CCN(c3ccncc3)CC4)cc21 (stereo not drawn) [Ind_CC-023]
101 | 98 | – | – | O=C(NC1CCc2ccc(C(=O)N3CCC4(CC3)CCN(c3ccncc3)C4)cc21)c1sccc1Cl (stereo not drawn) [Ind_CC-042, 3-chloro-N-[6-(2-pyridin-4-yl-2,8-diazaspiro[4.5]decane-8-carbonyl)-2,3-dihydro-1H-inden-1-yl]-thiophene-2-carboxylic acid amide]
88 | 79 | – | – | O=C(NC1CCc2ccc(C(=O)N3CCC4(CC3)CCN(c3ccncc3)C4)cc21)c1ccc(Cl)s1 (stereo not drawn) [Ind_CC-043, 5-chloro-N-[6-(2-pyridin-4-yl-2,8-diazaspiro[4.5]decane-8-carbonyl)-2,3-dihydro-1H-inden-1-yl]-thiophene-2-carboxylic acid amide]
100 | 97 | – | – | O=C(NC1CCc2ccc(C(=O)N3CCC4(CC3)CCN(c3ccncc3)C4)cc21)c1ccc(Cl)cc1Cl (stereo not drawn) [Ind_CC-044, 2,4-dichloro-N-[6-(2-pyridin-4-yl-2,8-diazaspiro[4.5]decane-8-carbonyl)-2,3-dihydro-1H-inden-1-yl]-benzamide]
101 | 100 | – | – | O=C(Cc1ccccc1Cl)NC1CCc2ccc(C(=O)N3CCC4(CC3)CCN(c3ccncc3)C4)cc21 (stereo not drawn) [Ind_CC-045, 2-(2-chlorophenyl)-N-[6-(2-pyridin-4-yl-2,8-diazaspiro[4.5]decane-8-carbonyl)-2,3-dihydro-1H-inden-1-yl]-acetamide]
68 | 98 | – | – | O=C(/C=C/c1ccccc1Cl)NC1CCc2ccc(C(=O)N3CCC4(CC3)CCN(c3ccncc3)C4)cc21 (stereo not drawn) [Ind_CC-046, (E)-3-(2-chlorophenyl)-N-[6-(2-pyridin-4-yl-2,8-diazaspiro[4.5]decane-8-carbonyl)-2,3-dihydro-1H-inden-1-yl]-acrylamide]
– | – | 60 | 94 | O=C(Nc1ccc(Cl)c(Cl)c1)NC1CCc2ccc(C(=O)N3CCC4(CC3)CCN(c3ccncc3)C4)cc21 (stereo not drawn) [Ind_CC-047]
88 | 98 | – | – | O=C(NCc1ccccc1Cl)NC1CCc2ccc(C(=O)N3CCC4(CC3)CCN(c3ccncc3)C4)cc21 (stereo not drawn) [Ind_CC-048, 1-[(2-chlorophenyl)-methyl]-3-[6-(2-pyridin-4-yl-2,8-diazaspiro[4.5]decane-8-carbonyl)-2,3-dihydro-1H-inden-1-yl]-urea]
101 | 99 | – | – | O=C(c1ccc2c(c1)C(NS(=O)(=O)c1ccccc1Cl)CC2)N1CCC2(CC1)CCN(c1ccncc1)C2 (stereo not drawn) [Ind_CC-049, 2-chloro-N-[6-(2-pyridin-4-yl-2,8-diazaspiro[4.5]decane-8-carbonyl)-2,3-dihydro-1H-inden-1-yl]-benzenesulfonic acid amide]
93 | 100 | – | – | COc1cc(C)c(S(=O)(=O)NC2CCc3ccc(C(=O)N4CCC5(CC4)CCN(c4ccncc4)C5)cc32)c(C)c1 (stereo not drawn) [Ind_CC-050, 4-methoxy-2,6-dimethyl-N-[6-(2-pyridin-4-yl-2,8-diazaspiro[4.5]decane-8-carbonyl)-2,3-dihydro-1H-inden-1-yl]-benzenesulfonic acid amide]
99 | 71 | – | – | O=C(NC1CCc2ccc(C(=O)N3CCC4(CC3)CCN(c3ccncc3)C4)cc21)C(c1ccccc1)c1ccccc1Cl (stereo not drawn) [Ind_CC-051, 2-(2-chlorophenyl)-2-phenyl-N-[6-(2-pyridin-4-yl-2,8-diazaspiro[4.5]decane-8-carbonyl)-2,3-dihydro-1H-inden-1-yl]-acetamide]
81 | 62 | – | – | CC1(C)CC(NC(=O)c2ccccn2)c2cc(C(=O)N3CCC4(CC3)CCN(c3ccncc3)CC4)ccc21 (stereo not drawn) [Ind_CC-052, N-[3,3-dimethyl-6-(9-pyridin-4-yl-3,9-diazaspiro[5.5]undecane-3-carbonyl)-1,2-dihydro-inden-1-yl]-pyridine-2-carboxylic acid amide]
103 | 99 | – | – | CC1(C)CC(NC(=O)Cc2ccccc2Cl)c2cc(C(=O)N3CCC4(CC3)CCN(c3ccncc3)CC4)ccc21 (stereo not drawn) [Ind_CC-053, 2-(2-chlorophenyl)-N-[3,3-dimethyl-6-(9-pyridin-4-yl-3,9-diazaspiro[5.5]undecane-3-carbonyl)-1,2-dihydro-inden-1-yl]-acetamide]
102 | 96 | – | – | CC1(C)CC(NC(=O)c2ccc(Cl)s2)c2cc(C(=O)N3CCC4(CC3)CCN(c3ccncc3)CC4)ccc21 (stereo not drawn) [Ind_CC-054, 5-chloro-N-[3,3-dimethyl-6-(9-pyridin-4-yl-3,9-diazaspiro[5.5]undecane-3-carbonyl)-1,2-dihydro-inden-1-yl]-thiophene-2-carboxylic acid amide]
102 | 99 | – | – | CC1(C)CC(NC(=O)c2sccc2Cl)c2cc(C(=O)N3CCC4(CC3)CCN(c3ccncc3)CC4)ccc21 (stereo not drawn) [Ind_CC-055, 3-chloro-N-[3,3-dimethyl-6-(9-pyridin-4-yl-3,9-diazaspiro[5.5]undecane-3-carbonyl)-1,2-dihydro-inden-1-yl]-thiophene-2-carboxylic acid amide]
94 | 41 | – | – | CC1(C)CC(NC(=O)C(c2ccccc2)c2ccccc2Cl)c2cc(C(=O)N3CCC4(CC3)CCN(c3ccncc3)CC4)ccc21 (stereo not drawn) [Ind_CC-056, 2-(2-chlorophenyl)-N-[3,3-dimethyl-6-(9-pyridin-4-yl-3,9-diazaspiro[5.5]-undecane-3-carbonyl)-1,2-dihydro-inden-1-yl]-2-phenyl-acetamide]
– | – | 80 | 35 | CC1(C)CC(NC(=O)Nc2ccc(Cl)c(Cl)c2)c2cc(C(=O)N3CCC4(CC3)CCN(c3ccncc3)CC4)ccc21 (stereo not drawn) [Ind_CC-057]
101 | 100 | – | – | CC1(C)CC(NC(=O)c2ccccc2C(F)(F)F)c2cc(C(=O)N3CCC4(CC3)CCN(c3ccncc3)CC4)ccc21 (stereo not drawn) [Ind_CC-058, N-[3,3-dimethyl-6-(9-pyridin-4-yl-3,9-diazaspiro[5.5]undecane-3-carbonyl)-1,2-dihydro-inden-1-yl]-2-(trifluoromethyl)-benzamide]
102 | 100 | – | – | CC1(C)CC(NC(=O)c2ccc(Cl)cc2Cl)c2cc(C(=O)N3CCC4(CC3)CCN(c3ccncc3)CC4)ccc21 (stereo not drawn) [Ind_CC-059, 2,4-dichloro-N-[3,3-dimethyl-6-(9-pyridin-4-yl-3,9-diazaspiro[5.5]undecane-3-carbonyl)-1,2-dihydro-inden-1-yl]-benzamide]
94 | 93 | – | – | CC1(C)CC(NC(=O)/C=C/c2ccccc2Cl)c2cc(C(=O)N3CCC4(CC3)CCN(c3ccncc3)CC4)ccc21 (stereo not drawn) [Ind_CC-060, (E)-3-(2-chlorophenyl)-N-[3,3-dimethyl-6-(9-pyridin-4-yl-3,9-diazaspiro[5.5]undecane-3-carbonyl)-1,2-dihydro-inden-1-yl]-acrylamide]
103 | 100 | – | – | CC1(C)CC(NC(=O)NCc2ccccc2Cl)c2cc(C(=O)N3CCC4(CC3)CCN(c3ccncc3)CC4)ccc21 (stereo not drawn) [Ind_CC-061, 1-[(2-chlorophenyl)-methyl]-3-[3,3-dimethyl-6-(9-pyridin-4-yl-3,9-diazaspiro[5.5]undecane-3-carbonyl)-1,2-dihydro-inden-1-yl]-urea]
101 | 95 | – | – | CC1(C)Cc2ccc(C(=O)N3CCC4(CC3)CCN(c3ccncc3)CC4)cc2C1NC(=O)c1ccccc1C(F)(F)F (stereo not drawn) [Ind_CC-064, N-[2,2-dimethyl-6-(9-pyridin-4-yl-3,9-diazaspiro[5.5]undecane-3-carbonyl)-1,3-dihydro-inden-1-yl]-2-(trifluoromethyl)-benzamide]
98 | 94 | – | – | CC1(C)Cc2ccc(C(=O)N3CCC4(CC3)CCN(c3ccncc3)CC4)cc2C1NC(=O)c1sccc1Cl (stereo not drawn) [Ind_CC-065, 3-chloro-N-[2,2-dimethyl-6-(9-pyridin-4-yl-3,9-diazaspiro[5.5]undecane-3-carbonyl)-1,3-dihydro-inden-1-yl]-thiophene-2-carboxylic acid amide]
